# Values of other authors as cited in patent US20060188492A1, “Topical management of ocular and periocular conditions” (ChronoRX LLC, an Alaska Limited Liability Company, priority 2005, published 2006).
# Assays:
# lens = conditions: experimental evidence; compared with the R isomer
# [1] = test system: bovine aortic endothelial cells; conditions: LA added before endothelial exposure to AGE albumin
# [2] = in the presence of glutathione (GSH)
Compound,prevention of cataract development (lens),further results
"O=C(O)CCCCC1CCSS1 (racemic) [racemic mixture, 1,2-dithiolane-3-pentanoic acid]",less than one-half as effective as the R isomer,
"O=C(O)CCCCC1CCSS1 (single isomer, unassigned) [S isomer, 1,2-dithiolane-3-pentanoic acid]",not effective,
"O=C(O)CCCCC1CCSS1 (centres unmarked) [LA, 1,2-dithiolane-3-pentanoic acid]",,depletion of GSH and ascorbic acid [1]: completely prevents depletion of GSH and ascorbic acid
"O=C(O)CCCCC1CCSS1 (stereo not drawn) [R stereoisomer of LA, 1,2-dithiolane-3-pentanoic acid]",can prevent cataract development,
"C[C@]12CC[C@@H]3c4ccc(O)cc4CC[C@H]3[C@@H]1CC[C@H]2O [estradiol, 17 α-estradiol]",,increase of neuroprotective potency [2]: 400 fold
